Data set [1] deals with DNA-aptamer for vancomycin. In words: Titration curve of vancomycin EAB sensor by square-wave voltammetry, dissociation constant of the aptamer. In kind it is binding. How it is done: Each combination of electrode/matrix was electrochemically interrogated via square-wave voltammetry to obtain two set of data: • A frequency map, where the signal-on and signal-off frequencies were determined for a particular amplitude. • A titration curve, where the sensor is interrogated at several concentrations of vancomycin by using the optimal signal-on frequency (responsible for the sensing event).
The titration curve also allowed determination of the dissociation constant of the aptamer in the employed matrix.
• Estart=between −0.5 and −0.4 V • Efinal=between −0.2 and −0.1 V • Eref=Ag|AgCl
• fix A=optimal amplitude (25 mV for vancomycin-in-vitro) • scan f=optimal signal-on value (between 80 and 100 Hz) and signal-off value (lower than 15 Hz)
Reference is made to FIG. 13 showing response of a vancomycin sensitive microelectrode (d=340 μm) in (i) human serum and (artificial ISF including BSA, and globulin as described above). The following equation describes an isotherm that represents the response of the sensing layer to the presence of different concentrations of vancomycin.
Reference is made to FIG. 17, showing data comparing the use of two different mathematical approaches for obtaining KD, which generated consisting fitting.

Data set [2] can be described thus: Human study: vancomycin in ISF by wearable EAB sensor vs serum. In kind it is in vivo. Particulars: healthy participants, single intravenous infusion 1 gram over 1 hour 40 minutes, ISF measured every 5 minutes. How it is done: These human studies followed vancomycin levels using an EAB sensor (which may also be referred to as the “device”). The device was a self-contained wearable EAB sensor, constructed, having an on-board power supply, electrodes, and electronics, including a microprocessor and BlueTooth™ communications module.
A vancomycin-sensitive EAB sensor was placed onto the participant's upper arm (see FIG. 20), opposite the arm where vancomycin was being infused. The time of device application was recorded. The device was applied 30 minutes (+15 minutes) prior to administering the vancomycin infusion and the device was removed up to 10 hours post-cessation of the infusion.
30 minutes (+15 minutes) post-application of the device, the participant received a single dose of vancomycin as an intravenous infusion (1 gram over 1 hour 40 minutes). The time of administration and completion of infusion was recorded. […]
Square Wave Voltammetry (SWV) was used to interrogate the DNA-based sensor electrodes. […] Use the determined peak currents magnitudes obtained at two different SWV interrogation frequencies (in this case 50 Hz and 300 Hz), when no vancomycin is present and when it is present to calculate an analyte concentration responsive signal(S). • 4. […]

The values that follow come from US20250303062A1, “Methods for controlling drug administration” (NUTROMICS […] LTD, priority 2022, published 2025).

`CN[C@H](CC(C)C)C(=O)N[C@H]1C(=O)N[C@@H](CC(N)=O)C(=O)N[C@H]2C(=O)N[C@H]3C(=O)N[C@H](C(=O)N[C@H](C(=O)O)c4cc(O)cc(O)c4-c4cc3ccc4O)[C@H](O)c3ccc(c(Cl)c3)Oc3cc2cc(c3O[C@@H]2O[C@H](CO)[C@@H](O)[C@H](O)[C@H]2O[C@H]2C[C@](C)(N)[C@H](O)[C@H](C)O2)Oc2ccc(cc2Cl)[C@H]1O` [vancomycin]: the KD entry in data set [1] (human serum, smaller sensing area (microelectrode d=170 μm), two mathematical approaches) is listed as “preserved”. In addition, the “KD (the dissociation constant of the DNA aptamer)” value in data set [1] (microelectrode d=340 μm, synthetic interstitial fluid containing proteins compared with human serum) is reported as “similar”. In data set [2], the “vancomycin in the ISF compartment (ISF vs blood)” value is “high variation”.
